Test results published in article PMC9691607 (Journal of medicinal chemistry, 2022).

Legend:
HDAC1 = details: read-out: HDAC1 IC50; Sandrone et al., different substrates; ref [47]; cited from earlier work
HDAC6 = details: ref [47], cited from earlier work; for IC50: read-out: HDAC6 IC50, Sandrone et al., different substrates; for SI (IC50 (HDAC1)/IC50 (HDAC6)): selectivity index HDAC1/6, Sandrone et al.
human HDAC6 = target: T1, human HDAC6 (Homo sapiens, UniProt Q9UBN7); experiment: HDAC6 inhibition assay; assay type: biochemical; details: selectivity index HDAC1/6
T1 sequence (Q9UBN7 1-1215): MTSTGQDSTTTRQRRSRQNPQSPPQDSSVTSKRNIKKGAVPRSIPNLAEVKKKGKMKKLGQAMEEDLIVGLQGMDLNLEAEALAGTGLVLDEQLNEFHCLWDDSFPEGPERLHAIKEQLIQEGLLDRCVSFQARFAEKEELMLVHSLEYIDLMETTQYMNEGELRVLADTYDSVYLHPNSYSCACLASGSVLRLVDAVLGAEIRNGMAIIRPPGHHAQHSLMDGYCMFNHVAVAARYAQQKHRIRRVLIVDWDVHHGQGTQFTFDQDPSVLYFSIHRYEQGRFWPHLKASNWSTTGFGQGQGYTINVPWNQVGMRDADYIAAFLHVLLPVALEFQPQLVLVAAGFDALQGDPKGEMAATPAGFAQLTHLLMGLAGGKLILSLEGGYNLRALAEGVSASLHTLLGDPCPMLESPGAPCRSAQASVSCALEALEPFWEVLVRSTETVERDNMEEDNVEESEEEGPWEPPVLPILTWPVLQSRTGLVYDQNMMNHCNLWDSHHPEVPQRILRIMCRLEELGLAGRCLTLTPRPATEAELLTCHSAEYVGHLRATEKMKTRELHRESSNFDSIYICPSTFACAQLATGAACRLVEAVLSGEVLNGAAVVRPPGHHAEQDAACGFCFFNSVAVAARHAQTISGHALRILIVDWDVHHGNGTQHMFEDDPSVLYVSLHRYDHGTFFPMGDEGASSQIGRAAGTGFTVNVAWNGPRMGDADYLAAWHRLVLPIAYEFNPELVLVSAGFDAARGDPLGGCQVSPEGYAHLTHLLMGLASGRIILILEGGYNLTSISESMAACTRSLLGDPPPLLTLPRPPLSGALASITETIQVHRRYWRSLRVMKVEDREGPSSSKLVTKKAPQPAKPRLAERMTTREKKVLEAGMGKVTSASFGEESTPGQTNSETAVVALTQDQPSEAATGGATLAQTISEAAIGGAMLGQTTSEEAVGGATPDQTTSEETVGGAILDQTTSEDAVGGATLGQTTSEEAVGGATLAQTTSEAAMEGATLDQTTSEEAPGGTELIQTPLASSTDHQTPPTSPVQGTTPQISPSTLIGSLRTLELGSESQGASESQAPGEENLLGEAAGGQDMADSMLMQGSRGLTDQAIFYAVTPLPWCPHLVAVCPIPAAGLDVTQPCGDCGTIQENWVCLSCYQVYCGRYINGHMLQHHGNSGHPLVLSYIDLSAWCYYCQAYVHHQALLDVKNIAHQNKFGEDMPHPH

HL60 = experiment: Combinatorial drug screening with decitabine, HL60; assay type: cell-based; details: combination with decitabine, HL60, 72 h co-treatment
MOLM13 = experiment: Combinatorial drug screening with decitabine, MOLM13; assay type: cell-based; details: combination with decitabine, MOLM13, 72 h co-treatment
HAL01 = experiment: Combinatorial drug screening with decitabine, HAL01; assay type: cell-based; details: combination with decitabine, HAL01, 72 h co-treatment
Jurkat = experiment: Combinatorial drug screening with decitabine, Jurkat; assay type: cell-based; details: combination with decitabine, 72 h co-treatment
HL60 cells [1] = experiment: Annexin V / PI apoptosis assay; assay type: cell-based; details: 1 μM or 5 μM, 48 h, annexin V and propidium iodide, flow cytometry
HL60 cells [2] = experiment: Immunoblotting of acetyl-α-tubulin and acetyl-histone H3; assay type: cell-based; details: 24 h; for acetylation of histone 3 (Ac-H3) / acetylation of α-tubulin: IC12.5-IC75 concentrations (ricolinostat at its IC50)
leukemia cell lines = assay type: cell-based; details: broad range of leukemia cell lines from therapy refractory subgroups; two healthy human fibroblast controls; values in Supplementary Table S1
HDAC4 = HDAC4 (Homo sapiens, UniProt P56524); experiment: HDAC4 inhibition assay; assay type: biochemical
Sequence of HDAC4 (P56524 627-1084 limits assumed): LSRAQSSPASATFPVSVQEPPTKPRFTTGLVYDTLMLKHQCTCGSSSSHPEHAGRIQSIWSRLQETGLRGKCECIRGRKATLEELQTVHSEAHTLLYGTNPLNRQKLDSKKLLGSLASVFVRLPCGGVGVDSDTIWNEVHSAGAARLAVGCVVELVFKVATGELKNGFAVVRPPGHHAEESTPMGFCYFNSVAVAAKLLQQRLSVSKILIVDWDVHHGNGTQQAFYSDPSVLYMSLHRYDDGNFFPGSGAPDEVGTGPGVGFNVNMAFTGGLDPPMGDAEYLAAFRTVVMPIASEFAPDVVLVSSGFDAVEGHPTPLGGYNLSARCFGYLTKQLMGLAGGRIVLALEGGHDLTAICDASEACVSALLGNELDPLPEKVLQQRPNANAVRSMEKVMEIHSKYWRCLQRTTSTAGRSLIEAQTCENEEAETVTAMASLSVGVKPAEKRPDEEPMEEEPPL

**Q.** Which IC50 (HDAC1) does the source give for O=C(NO)c1cccc(F)c1 [3-fluoro-N-hydroxybenzamide] here?
**A.** 29.4 µM

**Q.** What about the IC50 (HDAC6) of the same compound?
**A.** 0.453 µM

**Q.** And the “SI (IC50 (HDAC1)/IC50 (HDAC6))” value (HDAC6)?
**A.** 65

**Q.** With Cc1cc(C)cc(C(=O)N(CC(=O)NCc2ccccc2)Cc2ccc(C(=O)NO)cc2F)c1 [Compound 10g, 4-({N-[(Benzylcarbamoyl)methyl]-1-(3,5-dimethylphenyl)formamido}methyl)-3-fluoro-N-hydroxybenzamide] as the compound, how does the “SI (IC50 (HDAC1)/IC50 (HDAC6))” value (human HDAC6) read?
**A.** 6–24

**Q.** For CN(C)c1ccc(C(=O)N(CC(=O)NCc2ccccc2)Cc2ccc(C(=O)NO)cc2F)cc1 [Compound 10h, 4-({N-[(Benzylcarbamoyl)methyl]-1-[4-(dimethylamino)phenyl]formamido}methyl)-3-fluoro-N-hydroxybenzamide], which ZIP synergy score (HL60) is on record?
**A.** 25.08

**Q.** What about the ZIP synergy score (MOLM13) of the same compound?
**A.** 27.44

**Q.** What about the ZIP synergy score (HAL01) of the same compound?
**A.** 1.18

**Q.** What about the ZIP synergy score (Jurkat) of the same compound?
**A.** −0.87

**Q.** And the induction of apoptosis (HL60 cells [1])?
**A.** significant (p < 0.0001) increase in apoptotic cells

**Q.** And the “acetylation of histone 3 (Ac-H3)” value (HL60 cells [2])?
**A.** dose-dependent increase

**Q.** What about the “acetylation of α-tubulin” value (HL60 cells [2]) of the same compound?
**A.** dose-dependent increase

**Q.** What about the “acetylation of H3 on co-administration with decitabine” value (HL60 cells [2]; combination with decitabine vs mono-treatment) of the same compound?
**A.** strong induction of acetylation of H3 as compared to mono-treatment

**Q.** What about the “cellular viability of leukemia cell lines” value (leukemia cell lines) of the same compound?
**A.** markedly outperformed CI994 and ricolinostat

**Q.** With CC(C)c1ccccc1C(=O)N(CC(=O)NC(C)(C)C)Cc1ccc(C(=O)NO)cc1F [Compound 10p, 4-({N-[(tert-Butylcarbamoyl)methyl]-1-[2-(propan-2-yl)phenyl]formamido}methyl)-3-fluoro-N-hydroxybenzamide] as the compound, how does the ZIP synergy score (HL60) read?
**A.** 7.78

**Q.** And the ZIP synergy score (MOLM13)?
**A.** 7.18

**Q.** And the induction of apoptosis (HL60 cells [1])?
**A.** weaker (in comparison to 10h) although significant (p < 0.05) apoptosis induction

**Q.** And the “acetylation of histone 3 (Ac-H3)” value (HL60 cells [2])?
**A.** no effect on Ac-H3 levels

**Q.** And the “acetylation of α-tubulin” value (HL60 cells [2])?
**A.** induced acetylation of α-tubulin

**Q.** What about the “cellular viability of leukemia cell lines” value (leukemia cell lines) of the same compound?
**A.** IC50 values ranging in the high micromolar concentration

**Q.** With CN(C)c1ccc(C(=O)N(CC(=O)NCc2ccccc2)Cc2ccc(C(=O)NO)cc2)cc1 [DDK137] as the compound, how does the IC50 (HDAC4) read?
**A.** 2.67 µM

**Q.** Which results are given for O=C(NO)c1ccccc1 [N-hydroxybenzamide]?
**A.** IC50 (HDAC1): 25.4 µM; IC50 (HDAC6): 1.34 µM; SI (IC50 (HDAC1)/IC50 (HDAC6)) (HDAC6): 19

**Q.** With O=C(CCCCCCNC(=O)c1cnc(N(c2ccccc2)c2ccccc2)nc1)NO [Ricolinostat, ricolinostat, reference compound] as the compound, how does the “acetylation of histone 3 (Ac-H3)” value (HL60 cells [2]) read?
**A.** lower Ac-H3 levels than observed for 10h

**Q.** And the “acetylation of α-tubulin” value (HL60 cells [2])?
**A.** prominent acetylation of α-tubulin
